Laboratory results from US12274756B2, “Methods of treating and diagnosing epilepsy” (YALE UNIVERSITY, priority 2019, dated 2025).

Tested on: Rheb^CA neurons
Experiment: Whole cell patch clamp recording in acute slices, Rheb^CA (FCM) neurons
Type: cell-based, mice
Method: Each DNA plasmid was diluted in sterile PBS (pH 7.4) to a final concentration of 1.5-3 μg/μl (specific concentrations below). About 1 μl of DNA solution containing 0.1% fast green was injected into the lateral ventricle of E15.5±0.5 fetuses with a glass pipette. After injection, PBS soaked tweezer-type electrodes (model 520, BTX) were positioned on heads of the fetuses across the uterine wall and 6 square-pulses (42V, 50 ms duration, 950 ms intervals) were applied using a pulse generator (ECM830, BTX), Mice were prescreened for successful electroporation on a fluorescence enabled stereo microscope (SZX16, Olympus) prior to recruitment for EEG monitoring. To generate epilepsy-associated FCM, a DNA solution composed of pCAG-RhebS16H (Rheb^CA, 2 μg/μl) and pCAG-tdTomato (1 μg/μl) was injected in half of all fetuses while pCAG-GFP (3 μg/μl) containing solution was injected in the remaining littermates as controls. To silence FCM neurons, pCAG-Kir2.1-T2A-tdTomato (2 μg/μl)+pCAG-Rheb^CA (2 μg/μl) was injected in half of the fetuses while the remaining half received pCAG-Rheb^CA (2 μg/μl)+pCAG-GFP (2 μg/μl) as controls.
1-5-week-old mice were used for acute slices. Tissue was dissected and sliced in ice cold artificial cerebral spinal fluid (aCSF)oxygenated with 95% O2/5% CO2. The aCSF contained (all in mM): 124 NaCl, 3 KCl, 1.25 NaH2PO4, 1 MgSO4, 26 NaHCO3, 10 Dextrose, 2 CaCl2, 0.4 ascorbate, 4 Na-Lactate, 2 Na-Pyruvate (290±5 mOsm/kg, pH 7.2). Coronal sections (350 μm) were prepared using a vibratome (Vibratome 1000). Sections were incubated in aCSF at 32° C. for 45 minutes before returning to room temperature (25° C.) where they were kept for 8 to 10 hours during experimentation. Fluorescent neurons in the mPFC were visualized using epifluorescence on an Olympus BX51WI microscope with a 40× water immersion objective (Olympus, LUMPlanFL/IR). Whole-cell recordings were performed at 28° C. using pulled glass pipettes ([…]) filled with internal solution (in mM: 110 K-gluconate, 4 KCL, 10 HEPES, 10 di-tris-phosphocreatine, 4 Mg-ATP, 0.3 Na-GTP). Recordings were acquired with an amplifier (Axopatch 200B, Molecular Devices), The resting membrane potential was recorded within the first 10 seconds after achieving whole, cell configuration in current-clamp mode, while the cell is at rest without any holding current. The membrane conductance was calculated using the average membrane potential change from ten hyperpolarizing current injections of −500 pA in current-clamp mode when the cell is at rest. The action potential half width was calculated at half of the peak amplitude of a single action potential induced by current injection. The action potential firing threshold was defined as the membrane potential at which the first derivative of an action potential in current-clamp mode achieves 10% of its peak velocity (dV/dt). The action potential input-output curve was generated by injecting positive current in current-clamp mode from 0 to 2 nA at 100 pA increments for 500 msec.

[1] = Rheb^CA neurons with zatebradine

Structure (SMILES) | h current amplitude difference (ΔI) (500 ms-long voltage step, Rheb^CA vs Rheb^CA+zatebradine) | residual inward current at −90 mV [1] | resting membrane potential (RMP) [1] | hyperpolarization-induced voltage sag response (Rheb^CA neurons, −500 pA current step, zatebradine 40 μM) | HCN currents in Rheb^CA neurons before seizure onset (slices from P8-P12 mice) | hyperpolarization-activated inward currents (voltage-clamp steps from −40 to −130 mV, in the presence of zatebradine, not fully blocked) | neurons generating repetitive action potentials (Rheb^CA neurons, forskolin bath-application)
COc1ccc(CCN(C)CCCN2CCc3cc(OC)c(OC)cc3CC2=O)cc1OC [zatebradine] | significantly reduced | no residual inward current | shifted RMP of cells to hyperpolarized values similar to those of control neurons | eliminated the sag response | zatebradine-sensitive | significantly reduced | 
C=C[C@@]1(C)CC(=O)[C@]2(O)[C@@]3(C)[C@@H](O)CCC(C)(C)[C@@H]3[C@H](O)[C@H](OC(C)=O)[C@@]2(C)O1 [forskolin] |  |  |  |  |  |  | 4/9
